Experimental findings from PMC10052977, “α,ω-Diacyl-Substituted Analogues of Natural and Unnatural Polyamines: Identification of Potent Bactericides That Selectively Target Bacterial Membranes” (International Journal of Molecular Sciences, 2023) are described below.

As a reminder, the MIC is the smallest concentration in the dilution series that meets the test's criterion for growth inhibition. Usually melting point stands for the temperature, or range, at which the solid turns liquid.

In data set [1] the test system is Candida albicans ATCC90028. Description: Antifungal MIC, CO-ADD. Type of data set: cell-based. The conditions noted are these: mean (n = 2). The method in brief:
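Yeast from 3-day YPD cultures was diluted in YNB broth to a final 2.5 × 10^3 CFU/mL and incubated at 35 °C for 36 h without shaking. C. albicans MICs were read by OD530 absorbance. QC used fluconazole and Z'-factor controls.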

For data set [2], the system named is Cryptococcus neoformans ATCC208821. Briefly: Antifungal MIC, CO-ADD. The conditions noted are these: ATCC208821, Cryptococcus neoformans ATCC208821, mean (n = 2). Type of data set: cell-based. An outline of the steps: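 Fungal strains were grown on YPD agar at 30 °C for 3 days. Five colonies were used to make a yeast suspension of 1 × 10^6 to 5 × 10^6 CFU/mL, which was diluted in yeast nitrogen base (YNB) broth to 2.5 × 10^3 CFU/mL. Covered plates were incubated without shaking at 35 °C for 36 h. Fluconazole was the positive control, and quality was judged from antimicrobial controls and the Z'-factor.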

Data set [3] relates to Acinetobacter baumannii ATCC19606. Description: MIC, CO-ADD broth microdilution. It counts as cell-based. The note with it: mean (n = 2). For orientation: Broth dilution looks for growth in wells or tubes with falling amounts of substance.
Another data set has as its system human red blood cells. Description: Hemolytic assay. It counts as cell-based. The note with it: mean (n = 2). The method in brief:
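Washed human erythrocytes at 0.5 × 10^8 cells/mL in 0.9% NaCl, shaken 10 min with compound, then held 1 h at 37 °C. Released hemoglobin in supernatant after centrifugation read at OD405; HC10 and HC50 from variable-slope sigmoidal fit against log concentration.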

Data set [4] has as its system Staphylococcus aureus ATCC 25923 or ATCC 29213. Description: MIC, broth dilution (CA-SFM). It counts as cell-based. The conditions noted are these: Staphylococcus aureus ATCC 25923 or ATCC 29213; mean (n = 3); read-out: MIC S. a.
Data set [5] concerns Escherichia coli ATCC 25922. Description: MIC, CO-ADD broth microdilution. It counts as cell-based. The note with it: ATCC25922, mean (n = 2).
For data set [6], the system named is Klebsiella pneumoniae ATCC700603. Briefly: MIC, CO-ADD broth microdilution. Type of data set: cell-based. The conditions noted are these: mean (n = 2).
Data set [7] is described as follows: Cytotoxicity assay (resazurin). It counts as cell-based, human. The note with it: human; HEK293 cells; mean (n = 2); highest dose tested 32 μg/mL; read-out: Cytotoxicity (concentration of compound at 50% cytotoxicity, IC50). For orientation: Resazurin is reduced to fluorescent resorufin, in cell work by metabolically active cells.
A further data set relates to MRSA ATCC 43300. Description: MIC, CO-ADD broth microdilution. It counts as cell-based, Staphylococcus aureus. The note with it: Staphylococcus aureus; MRSA ATCC 43300; mean (n = 2); read-out: MIC MRSA.
Data set [8] concerns Pseudomonas aeruginosa PAO1 or ATCC 27853. Description: MIC, broth dilution (CA-SFM). Type of data set: cell-based. The note with it: mean (n = 3).
For another data set, the system named is P. aeruginosa ATCC27853. Briefly: Doxycycline potentiation (MIC of antibiotic in presence of synergizing compound). Type of data set: cell-based, Pseudomonas aeruginosa. The conditions noted are these: doxycycline 2 μg/mL, P. aeruginosa ATCC 27853.

Bounds are passed on as bounds.

In the case of `Cl.Cl.S=C(NCCCNCCCCCCCCNCCCNC(=S)NC(c1ccccc1)c1ccccc1)NC(c1ccccc1)c1ccccc1` [Compound 6d, N^1,N^8-Bis(3-(3-benzhydrylthioureido)propyl)octane-1,8-diaminium chloride], the melting point fell in the range of 113 to 115 °C. In addition, the minimum inhibitory concentration (MIC) in data set [1] was at most 0.32 µM. In addition, the MIC in [2] came out at 20.5 µM. In addition, the MIC in [3] is 5.1 µM. The “Hemolysis (HC10, concentration at 10% hemolytic activity)” value with human red blood cells was determined as 2.07 µM. Moreover, the MIC in data set [4] is 6.25 µM. The compound further yielded an MIC in data set [5] of at most 0.32 µM. This compound also yielded an MIC in data set [6] of 40.9 µM. Also, the IC50 at 20 h in [7] came to 10.1 µM. For the same compound, the MIC in the data set with MRSA ATCC 43300 was at most 0.32 µM. For the same compound, the MIC in data set [8] worked out at 100 µM.
As for `Cl.Cl.S=C(NCCCNCCCCCCCCCCCCNCCCNC(=S)NC(c1ccccc1)c1ccccc1)NC(c1ccccc1)c1ccccc1` [Compound 6f, N^1,N^12-Bis(3-(3-benzhydrylthioureido)propyl)dodecane-1,12-diaminium chloride], the melting point was 103 to 104 °C. The MIC in [1] is at most 0.3 µM. Besides, in data set [2], the minimal inhibitory concentration (MIC) is over 38.2 µM. The MIC in data set [3] is over 38.2 µM. In addition, the “Hemolysis (HC10, concentration at 10% hemolytic activity)” value with human red blood cells is over 38.2 µM. Further, in data set [4], the MIC was over 239 µM. The compound also showed an MIC in data set [5] of 2.4 µM. This compound also had a minimum inhibitory concentration (MIC) in [6] of over 38.2 µM. Also, in [7], the IC50 at 20 h is at most 0.298 µM. Also, the minimal inhibitory concentration (MIC) with MRSA ATCC 43300 is at most 0.3 µM. Further, the MIC in [8] came to 120 µM.
As to `O=C(O)CCC(=O)NCCCc1ccccc1` [Compound 8, 4-oxo-4-((3-phenylpropyl)amino)butanoic acid], the melting point was in the range of 94 to 95 °C.
Regarding `Cl.Cl.S=C(NCCCNCCCCCCCCCCNCCCNC(=S)NC(c1ccccc1)c1ccccc1)NC(c1ccccc1)c1ccccc1` [Compound 6e, N^1,N^10-Bis(3-(3-benzhydrylthioureido)propyl)decane-1,10-diaminium chloride], the melting point was 114 to 115 °C. This compound showed an MIC in data set [1] of at most 0.31 µM. In data set [2], this compound returned an MIC of over 39.5 µM. In addition, the MIC in data set [3] was 4.9 µM. Besides, the “antibiotic enhancement of doxycycline” value in the data set on P. aeruginosa ATCC27853 is given as “particularly strong enhancers”. The “Hemolysis (HC10, concentration at 10% hemolytic activity)” value with human red blood cells was over 39.5 µM. The MIC in data set [4] is over 247 µM. In data set [5], this compound showed an MIC of at most 0.31 µM. Further, in data set [6], the MIC was over 39.5 µM. Moreover, the IC50 at 20 h in data set [7] was over 39.5 µM. The MIC in the data set with MRSA ATCC 43300 is at most 0.31 µM. The compound also gave a minimal inhibitory concentration (MIC) in [8] of 247 µM.
`O=C(O)CCC(=O)NCCC(c1ccccc1)c1ccccc1` [Compound 10, 4-((3,3-diphenylpropyl)amino)-4-oxobutanoic acid] gave a melting point of 134 to 137 °C.
Regarding `O=C(CCC(=O)NCCC(c1ccccc1)c1ccccc1)NCCCNCCCCCCCNCCCNC(=O)CCC(=O)NCCC(c1ccccc1)c1ccccc1.O=C(O)C(F)(F)F.O=C(O)C(F)(F)F` [Compound 16c, N^1,N^7-Bis(3-(4-((3,3-diphenylpropyl)amino)-4-oxobutanamido)propyl)heptane-1,7-diaminium 2,2,2-trifluoroacetate], the MIC in [1] was over 30.2 µM; in [2], 30.2 µM; in data set [3] it was over 30.2 µM; in data set [4] it was 24 µM; in data set [5], over 30.2 µM; in data set [6], over 30.2 µM. In addition, the MIC with MRSA ATCC 43300 was at most 0.24 µM; in data set [8], 480 µM. For the same compound, the “Hemolysis (HC10, concentration at 10% hemolytic activity)” value in the data set on human red blood cells is over 30.2 µM. Besides, in data set [7], the IC50 at 20 h is over 30.2 µM.
`O=C(CCc1ccccc1)NCCCNCCCCCCCCNCCCNC(=O)CCc1ccccc1.O=C(O)C(F)(F)F.O=C(O)C(F)(F)F` [Compound 13d, N^1,N^8-Bis(3-(3-phenylpropanamido)propyl)octane-1,8-diaminium 2,2,2-trifluoroacetate]: the MIC in data set [1] is over 42.6 µM; in data set [2] it was over 42.6 µM; in data set [3], over 42.6 µM; in data set [4], over 266 µM; in data set [5] it was over 42.6 µM; in [6] it was over 42.6 µM. In addition, the MIC in the data set on MRSA ATCC 43300 was over 42.6 µM; in data set [8], over 266 µM. Moreover, the “Hemolysis (HC10, concentration at 10% hemolytic activity)” value in the data set on human red blood cells is over 42.6 µM. In data set [7], the IC50 at 20 h is over 42.6 µM.
Take `O=C(CC(c1ccccc1)c1ccccc1)NCCCNCCCCNCCCNC(=O)CC(c1ccccc1)c1ccccc1.O=C(O)C(F)(F)F.O=C(O)C(F)(F)F` [Compound 15a, N^1,N^4-Bis(3-(3,3-diphenylpropanamido)propyl)butane-1,4-diaminium 2,2,2-trifluoroacetate]: the MIC was over 37.8 µM in [1]; over 37.8 µM in data set [2]; over 37.8 µM in data set [3]; 6.25 µM in data set [4]; at most 0.3 µM in data set [5]; over 37.8 µM in [6]. Also, the MIC with MRSA ATCC 43300 was at most 0.3 µM; in data set [8], 50 µM. For the same compound, the “fold increase (antibiotic enhancement vs intrinsic MIC)” value in the data set with P. aeruginosa ATCC27853 is 4 fold. Also, the “Hemolysis (HC10, concentration at 10% hemolytic activity)” value with human red blood cells is over 37.8 µM. In [7], the IC50 at 20 h is over 37.8 µM.
As to `O=C(CCC(=O)NCCC(c1ccccc1)c1ccccc1)NCCCNCCCCNCCCNC(=O)CCC(=O)NCCC(c1ccccc1)c1ccccc1.O=C(O)C(F)(F)F.O=C(O)C(F)(F)F` [Compound 16a, N^1,N^4-Bis(3-(4-((3,3-diphenylpropyl)amino)-4-oxobutanamido)propyl)butane-1,4-diaminium 2,2,2-trifluoroacetate], the MIC was over 31.5 µM in data set [1]; at most 0.28 µM in data set [2]; over 31.5 µM in data set [3]; 25 µM in [4]; over 31.5 µM in data set [5]; over 31.5 µM in [6]. Further, the MIC with MRSA ATCC 43300 was at most 0.25 µM; in data set [8] (18 h), 20 µM. In addition, the “fold increase (antibiotic enhancement vs intrinsic MIC)” value in the data set on P. aeruginosa ATCC27853 is recorded as 8 fold. Moreover, in the data set with human red blood cells, the “Hemolysis (HC10, concentration at 10% hemolytic activity)” value was over 31.5 µM. Also, the IC50 at 20 h in [7] was over 31.5 µM.
`Cl.Cl.S=C(NCCCNCCCCCCCNCCCNC(=S)NC(c1ccccc1)c1ccccc1)NC(c1ccccc1)c1ccccc1` [Compound 6c, N^1,N^7-Bis(3-(3-benzhydrylthioureido)propyl)heptane-1,7-diaminium chloride] registered a melting point of 115 to 116 °C. The same compound had an MIC in [1] of at most 0.33 µM. In data set [2], this compound gave an MIC of 0.65 µM. In data set [3], this compound yielded an MIC of 2.6 µM. For the same compound, the “Hemolysis (HC10, concentration at 10% hemolytic activity)” value in the data set with human red blood cells was at most 0.326 µM. The MIC in [4] came to 65 µM. The compound further showed an MIC in data set [5] of at most 0.33 µM. Besides, the MIC in [6] is over 41.7 µM. In addition, the IC50 at 20 h in data set [7] was over 41.7 µM. In addition, the MIC in the data set with MRSA ATCC 43300 was at most 0.33 µM. In data set [8], this compound displayed an MIC of over 260 µM.
The compound `Cl.Cl.S=C(NCCCNCCCCNCCCNC(=S)NC(c1ccccc1)c1ccccc1)NC(c1ccccc1)c1ccccc1` [Compound 6a, N^1,N^4-Bis(3-(3-benzhydrylthioureido)propyl)butane-1,4-diaminium chloride] displayed a melting point of 168 to 169 °C. The compound further had an MIC in data set [1] of at most 0.34 µM. In data set [2], this compound showed an MIC of 11 µM. The compound further returned an MIC in [3] (18 h) of at most 0.35 µM. In the data set with human red blood cells, the “Hemolysis (HC10, concentration at 10% hemolytic activity)” value stood at 7.73 µM. Further, the minimal inhibitory concentration (MIC) in [4] was over 276 µM. The compound further registered an MIC in data set [5] of 2.8 µM. This compound also showed an MIC in data set [6] of over 44.1 µM. The IC50 at 20 h in [7] was over 44.1 µM. In addition, the MIC in the data set on MRSA ATCC 43300 is at most 0.34 µM. In data set [8], this compound gave an MIC of 138 µM.
Regarding `O=C(NCCCNCCCCNCCCNC(=O)C(c1ccccc1)(c1ccccc1)c1ccccc1)C(c1ccccc1)(c1ccccc1)c1ccccc1.O=C(O)C(F)(F)F.O=C(O)C(F)(F)F` [Compound 17a, N^1,N^4-Bis(3-(2,2,2-triphenylacetamido)propyl)butane-1,4-diaminium 2,2,2-trifluoroacetate], the MIC is over 33 µM in data set [1]; under 0.26 µM in [2]; 8.24 µM in [3]; 6.25 µM in [4]; 1.03 µM in data set [5]; over 33 µM in data set [6]. The results for the MIC (in the data set on MRSA ATCC 43300; in data set [8]) were under 0.26 µM and 300 µM, respectively. Besides, the “Hemolysis (HC10, concentration at 10% hemolytic activity)” value in the data set on human red blood cells was 5.57 µM. In addition, in data set [7], the IC50 at 20 h is 0.329 µM.
